Experimental data taken from patent US9463195B2, “Dissolution of amyloid fibrils by flavonoids and other compounds” (The Regents of the University of California, priority 2006, dated 2016).
Where a name gives a salt, the structure may show the parent alone. Read-outs that look alike come from different tables or passages of the source.

Legend:
[1] = target: T1, preformed human β-2 microglobulin fibrils (Homo sapiens, UniProt P61769); assay: Dose-response testing by thioflavin T fluorescence; type: biochemical; details: for Dose-Response (conc. at which slope is better than control): ThT/β2M fibril fluorescence, tested 100 nM to 10 mM; for concentration at which preformed human B2M fibrils are disrupted: in the range of
Experimental: Twelve compounds were selected for testing their dose-response effects. Dose-response curves were derived as follows. Preformed β-2 microglobulin fibrils were mixed with ThT in the ratios described above and divided into portions of 40 μL per well across 8 wells. The final concentrations were the same as used in the high-throughput screen: 4.1 μM ThT, 41.2 mM glycine, 0.018 mg/mL B2M, 35 mM NaCl, 4.4 mM phosphate. The first and last wells of each row were controls (B2M fibrils+ThT+solvent (water or DMSO)). To wells 2-7 of a given row, test compound was added to the β2M fibril/ThT mix such that the following final concentrations in the well were reached: 10 mM, 1 mM, 100 μM, 10 μM, 1 μM, and 100 nM. Each row was set up in duplicate. The wells were incubated for 99 hours and data collected at 2.5 hour intervals. Compound 22 was tested using both water and DMSO as solvent.
It is visually apparent that concentrations down to 10 μM of both compound 22 and L18 affect the B2M/Tht fluorescence.

[2] = target: T1, preformed human β-2 microglobulin fibrils; assay: Thioflavin T fluorescence high-throughput screen (slope assay score) for disruption of preformed fibrils; type: biochemical; details: for Slope Assay Score: slope of relative ThT fluorescence versus time, more negative = stronger disruption
Experimental: As used herein, “slope assay score” means the slope of the relative fluorescence of thioflavin T versus time curve for a given compound in a thioflavin T fluorescence assay. A negative slope signifies a decrease in thioflavin T fluorescence over time.
The human β-2 microglobulin fibrils were prepared in vitro at 0.1 mg/mL protein in 25 mM phosphate, pH 2, 0.2 M NaCl without agitation for 1 week at 37° C., in the same manner as Ivanova et al. See Ivanova et al. (Proc Natl Acad Sci U.S.A. 2004 Jul. 20; 101(29):10584-9).
In our experiments, disruption of the fibrillar structure of preformed β-2 microglobulin fibrils was monitored by fluorescence. The dye used, thioflavin T, serves as a probe for the presence or absence of amyloid fibrils. Thioflavin T binds specifically to human β-2 microglobulin fibrils, causing a red shift in the fluorescence excitation spectra of the dye to produce a peak in the fluorescence emission spectrum at 482 nm when the excitation wavelength is set at 444 nm. […] Because aliquotting of fibrils has an inherent variability, we aimed for a high signal/noise ratio of ˜10.
In the fluorescence assay used here, preformed human β-2 microglobulin fibrils were mixed with a solution of 5 μM ThT in 50 mM glycine, pH 8.6 in a 3:14 ratio (final concentrations: 4.1 μM ThT, 41.2 mM glycine, 0.018 mg/mL β-2 microglobulin, 35 mM NaCl and 4.4 mM phosphate). Fluorescence was measured immediately after mixing (excitation wavelength set at 444 nm, emission wavelengths at 482, 490, and 502 nm) with a Molecular Devices FlexStation II.
In our experiments, we screened 5200 compounds to determine whether a compound could disrupt preformed human β-2 microglobulin fibrils. Preformed β-2 microglobulin fibrils and ThT were mixed in the ratios described above in Example 2 and divided among seventeen 384-well glass-bottom plates (Costar #6569) using 40 μL/well. Each of the sixteen commercial plates contained four columns of control wells: columns 1, 2, and 23 contained preformed fibrils+dimethylsulfoxide (herein, DMSO), but no compound; column 24 contained nonfibrillar β2M+DMSO (no compound). The final concentrations of compound and DMSO in the other wells were 10 μM and 1%, respectively. Compounds were obtained from the following chemical libraries: the MicroSource Discovery Systems, Inc. Spectrum Collection library (J Virology 77: 10288 (2003); Ann Rev Med 56: 321 (2005)), the first four plates from the Prestwick Chemical Inc. library, two BIOMOL plates (phosphatase/kinase inhibitor library and bioactive lipid library), and the first five plates from the ChemBridge Corporation DIVERSet.
Plate 17 was prepared in-house and set up slightly differently than the commercial plates. Column 24 contains nonfibrillar B2M as in the other plates. However, only the first two rows contain added compounds, and the remaining rows contain control samples (fibrils mixed with thioflavin T, no compound). The chemicals used to prepare this supplemental plate were purchased from SIGMA. For each compound, a 1 mM solution in OmniSolv DMSO was prepared and filtered with Millex-FG 0.2 micron filters. The supplementary plate contained compounds at 1 or 10 mM in 100% DMSO, such that the final screening concentration is 10 or 100 μM compound in I% DMSO.
All plates were read manually on a Molecular Devices FlexStation II using the bottom-read function. For each of the wells, an initial fluorescence intensity measurement was taken as a baseline.

[3] = test system: preformed β-amyloid fibrils; details: Bush 2002; cited from earlier work
[4] = test system: β-amyloid fibrils; details: Bush study; cited from earlier work
[5] = Solubility in water
[6] = cited from earlier work
[7] = orally at doses at least twice this high (Ullmann, Haller et al. 2004); cited from earlier work
[8] = target: T1, preformed human β-2 microglobulin fibrils; assay: Electron microscopy as a secondary screen of fibril disruption; type: biochemical; details: for state of fibrils by electron microscopy at 10 μM compound / state of fibrils by electron microscopy at 1 mM compound / state of fibrils by electron microscopy at 100 μM compound: two-week incubation; for effect on fibrils by electron microscopy: at the concentrations tested
Experimental: Electron microscopy was used to confirm the effects of, among others, compounds 22 and L18 on the fibrils. Compounds 22 and L18 were mixed with drug and solvent or solvent alone and were separately incubated with preformed human β-2 microglobulin fibrils for two weeks. Compound 22 was tested at three concentrations (1 mM, 100 μM, and 10 μM). Aliquots were taken immediately after mixing, at day 2, at day 5, day 7, and day 14. Samples were fixed to grids (made hydrophilic by glow-discharge) upon taking the aliquots, washed with distilled water, and stained with 1% uranyl acetate. Grids were examined in a Hitachi H-7000 transmission electron microscope operating at 75 kV. Images were collected on Kodak electron microscope film 4489.

[9] = Gordon M et al 2006; cited from earlier work

T1 sequence (P61769 21-119): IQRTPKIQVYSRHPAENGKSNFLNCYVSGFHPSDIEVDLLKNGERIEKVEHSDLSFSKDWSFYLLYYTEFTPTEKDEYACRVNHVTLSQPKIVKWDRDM

| Molecule | concentration at which the compound affects thioflavin T/β-2M fibril fluorescence in a dose-dependent manner [1] | dose-dependent effect on thioflavin T/β-2 microglobulin fibril fluorescence (words) [1] | Dose-Response (conc. at which slope is better than control) [1] [µM] | effective in the fluorescence assay at disrupting β-2 microglobulin fibers [2] | Slope Assay Score [2] | effect on fibrils by electron microscopy [8] | also measured |
| --- | --- | --- | --- | --- | --- | --- | --- |
| CN1CCc2cccc3c2[C@H]1Cc1ccc(O)c(O)c1-3 [Apomorphine hydrochloride hemihydrate] | less than or equal to 1 μM | dose-dependent effect | 1 to 10 | effective | −.061 |  |  |
| Oc1c(I)cc(Cl)c2cccnc12 [Clioquinol] |  |  |  |  |  |  | disruption of preformed β-amyloid fibrils [3]: disrupts; effectiveness in mice [4]: effective |
| O=C(O[C@@H]1Cc2c(O)cc(O)cc2O[C@@H]1c1cc(O)c(O)c(O)c1)c1cc(O)c(O)c(O)c1 [Compound 22, Epigallocatechin gallate] | 10 µM | dose-dependent | 10 | disrupts | −.087 | had an effect on fibrils | concentration at which preformed human B2M fibrils are disrupted [1]: ~10 µM; dose-dependent effect on thioflavin T/β-2 microglobulin fibril fluorescence (words) ([1]; listed as EGCG): dose-related effects; solubility in water [5]: soluble; average plasma level ([6]; patients, single oral dose (Chow et al. 2001)): 1 µM; plasma levels reached ([6]; single oral dose (Nakagawa, Okuda and Miyazawa 1997)): 4.4 µM; human plasma levels reached ([6]; single oral dose (Unno et al. 1996)): 2 to 4 µM; oral tolerability [7]: well-tolerated; state of fibrils by electron microscopy at 10 μM compound [8]: significantly disrupted; state of fibrils by electron microscopy at 1 mM compound [8]: almost all of the fibrils |
| NC(CO)C(=O)NNCc1ccc(O)c(O)c1O (centres unmarked) [Compound L18, benserazide hydrochloride] | 10 µM |  | 10 |  | −.066 | had an effect on fibrils | dose-dependent effect on thioflavin T/β-2 microglobulin fibril fluorescence (words) ([1]; hydrochloride): dose-dependent; concentration at which preformed human B2M fibrils are disrupted [1]: ~10 µM; dose-dependent effect on thioflavin T/β-2 microglobulin fibril fluorescence (words) ([1]; listed as benserazide, hydrochloride): dose-related effects; plasma concentrations routinely achievable [9]: 6 µM |
| Cc1cc(O)c(C=O)c(O)c1C(=O)O [Haematommic Acid] | less than or equal to 10 μM | dose-dependent effect | 1 | effective | −.076 | visibly disrupted | state of fibrils by electron microscopy at 10 μM compound [8]: disrupted and unwound; state of fibrils by electron microscopy at 1 mM compound [8]: fibril dissolution was virtually complete |
| C=C1c2c(Cl)ccc(O)c2C(O)=C2C(=O)[C@]3(O)C(=O)/C(=C(\N)O)C(=O)[C@@H](N(C)C)[C@@H]3[C@@H](O)[C@H]12 [Meclocycline sulfosalicylate] | less than or equal to 10 μM | dose-dependent effect | 10 | effective | −.066 | visibly disrupted | state of fibrils by electron microscopy at 100 μM compound [8]: no intact fibrils present; state of fibrils by electron microscopy at 1 mM compound [8]: no visible fibrils |
| COc1cc(NC(C)CCCN)c2ncccc2c1 (centres unmarked) [Primaquine diphosphate] | less than or equal to 10 μM | dose-dependent effect | 10 | effective | −.058 |  |  |
| COc1cc(C)c2c(c1C=O)Oc1c(c(C)c(O)c3c1C(O)OC3=O)OC2=O (centres unmarked) [Stictic Acid] | ≤ 10 µM | dose-dependent effect | 10 | effective | −.098 | visibly disrupted | state of fibrils by electron microscopy at 100 μM compound [8]: mostly disrupted; state of fibrils by electron microscopy at 1 mM compound [8]: mostly disappeared |
| Cc1c(C(=O)O)c(O)cc2c1C(=O)c1c(O)c([C@@H]3O[C@H](CO)[C@@H](O)[C@H](O)[C@H]3O)c(O)c(O)c1C2=O [carminic acid] |  |  |  | effective |  |  |  |
| Cc1cc(N)c2ccccc2[n+]1CCCCCCCCCC[n+]1c(C)cc(N)c2ccccc21 [dequalinium dichloride] |  |  |  | effective |  |  |  |
| Clc1ccc(COC(Cn2ccnc2)c2ccc(Cl)cc2Cl)cc1 (centres unmarked) [econazole nitrate] |  |  |  | effective |  |  |  |
| COC(=O)c1c(C)c2c(c(C)c1O)OC(=O)c1c(C)c(Cl)c(O)c(Cl)c1O2 [leoidin] |  |  |  | effective |  |  |  |
| CCn1cc(C(=O)O)c(=O)c2ccc(C)nc21 [nalidixic acid] |  |  |  | effective |  |  |  |
| NCCc1cc(O)c(O)cc1O [oxidopamine] |  |  |  | effective |  |  |  |
| OC[C@H]1O[C@@H](Oc2cc(O)cc(/C=C/c3ccc(O)cc3)c2)[C@H](O)[C@@H](O)[C@@H]1O [resveratrol-3-glucoside] |  |  |  |  |  | did not have an effect on fibrils |  |
| Dobutamine hydrochloride | less than or equal to 10 μM | dose-dependent effect | 10 | effective | −.058 |  |  |
